Active and inactive are the calls of the source. No cut-off for these calls is given here.
Assays:
[1] = system: A549; test: Antiproliferative activity against human A549 cells after 72 hrs by SRB assay; assay type: functional, cell-based; conditions: A549, 72 h
[2] = system: HL-60; test: Antiproliferative activity against human HL60 cells after 72 hrs by SRB assay; assay type: functional, cell-based; conditions: HL-60, 72 h
[3] = system: RPMI-8226; test: Antiproliferative activity against human RPMI8226 cells after 72 hrs by SRB assay; assay type: functional, cell-based; conditions: RPMI-8226, 72 h
[4] = system: A2780; test: Antiproliferative activity against human A2780 cells after 72 hrs by SRB assay; assay type: functional, cell-based; conditions: A2780, 72 h
[5] = Metabolic stability in Sprague-Dawley rat liver microsomes assessed as compound remaining at 20 uM preincubated for 5 mins followed by NADPH addition measured after 20 mins by HPLC analysis; assay type: ADME, microsome; conditions: read-out: Stability
[6] = system: MDA-MB-231; test: Antiproliferative activity against human MDA-MB-231 cells after 72 hrs by SRB assay; assay type: functional, cell-based; conditions: MDA-MB-231, 72 h
[7] = target: T1, Proteasome Macropain subunit MB1 (Homo sapiens) (UniProt P28074); test: Inhibition of chymotrypsin-like activity of human 20S proteasome at 100 nM using Suc-Leu-Leu-Val-Tyr-AMC as substrate by fluorescence assay relative to control
T1 sequence (whole entry): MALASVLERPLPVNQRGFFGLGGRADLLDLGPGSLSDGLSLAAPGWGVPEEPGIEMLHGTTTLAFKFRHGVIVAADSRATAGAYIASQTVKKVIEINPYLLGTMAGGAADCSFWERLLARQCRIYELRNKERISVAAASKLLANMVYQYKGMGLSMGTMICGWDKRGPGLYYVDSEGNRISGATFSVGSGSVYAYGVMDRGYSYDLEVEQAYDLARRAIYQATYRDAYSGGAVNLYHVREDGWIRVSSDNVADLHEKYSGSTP

[8] = target: T1, Proteasome Macropain subunit MB1 (Homo sapiens); test: Inhibition of chymotrypsin-like activity of human 20S proteasome at 1 uM using Suc-Leu-Leu-Val-Tyr-AMC as substrate by fluorescence assay relative to control
[9] = target: T2, Proteasome Macropain subunit MB1 (Homo sapiens, UniProt P28074); test: Inhibition of chymotrypsin-like activity of human 20S proteasome using Suc-Leu-Leu-Val-Tyr-AMC as substrate by fluorescence assay
T2 sequence (P28074 whole entry): T1 sequence (whole entry)

[10] = species: Homo sapiens; test: Inhibition of 20S proteasome activity in human MDA-MB-231 cells assessed as accumulation of ubiquitinated proteins at 50 nM by Western blot method; assay type: cell-based
[11] = target: T2, Proteasome Macropain subunit MB1; test: Inhibition of chymotrypsin-like activity of human LCL-derived 20S proteasome using Suc-LLVY-AMC as substrate preincubated with enzyme followed by substrate addition measured after 30 mins by fluorescence assay
[12] = Drug metabolism in human plasma administered as iv bolus dose after 30 mins; assay type: ADME, organism-based; conditions: read-out: Drug metabolism

| Structure (SMILES) | inhibition [7] | inhibition [8] | further results |
| --- | --- | --- | --- |
| CC(C)C[C@H](NC(=O)[C@H](Cc1ccccc1)NC(=O)c1cnccn1)B(O)O [BORTEZOMIB] | – | – | IC50 [1]: 2.5 nM; IC50 [2]: 3.2 nM; IC50 [3]: 6.7 nM; IC50 [4]: 28.9 nM; remaining at 20 min, 20 µM [5]: 44%; IC50 [6]: 6.5 nM |
| CC1=C(NCC(=O)N[C@@H](CC(C)C)B(O)O)C(=O)c2ccccc2C1=O | 65.9% | > 50% | – |
| CC(C)C[C@H](NC(=O)[C@H](Cc1ccccc1)NC1=CC(=O)c2ccccc2C1=O)B(O)O | 90.3% | > 50% | IC50 [9]: 11.4 nM; IC50 [1]: 679 nM; IC50 [2]: 1110 nM; inhibition [10]: Active; IC50 [3]: 1090 nM; IC50 [4]: 470 nM; remaining at 20 min, 20 µM [5]: 60%; IC50 [6]: 38.3 nM |
| CC1=C(N[C@H](C(=O)N[C@@H](CC(C)C)B(O)O)C(C)C)C(=O)c2ccccc2C1=O | 42.3% | > 50% | – |
| CC1=C(N[C@@H](Cc2ccccc2)C(=O)N[C@@H](CC(C)C)B(O)O)C(=O)c2ccccc2C1=O | 84.7% | > 50% | IC50 [9]: 25.9 nM |
| CC(C)C[C@H](NC(=O)CNC1=C(Cl)C(=O)c2ccccc2C1=O)B(O)O | 67.7% | > 50% | – |
| O=CN(O)CCC[C@@H](NC(=O)[C@H](CO)NC(=O)[C@@H]1COC(c2ccccc2O)=N1)C(=O)NCCC(=O)N[C@@H]1CCCN(O)C1=O | – | – | IC50 [11]: 39.4 µM |
| CC(C)C[C@H](NC(=O)[C@H](CC(C)C)NC1=CC(=O)c2ccccc2C1=O)B(O)O | 79.8% | > 50% | IC50 [9]: 44.3 nM |
| CC(C)C[C@H](NC(=O)[C@H](C)NC1=CC(=O)c2ccccc2C1=O)B(O)O | 67.5% | > 50% | – |
| C[C@@H](CO)NC(=O)c1ccccc1O | – | – | IC50 [11]: 24.8 µM |
| CC(C)C[C@H](NC(=O)CNC1=CC(=O)c2ccccc2C1=O)B(O)O | 84.9% | > 50% | IC50 [9]: 23.2 nM; IC50 [1]: 2890 nM; IC50 [2]: 3590 nM; inhibition [10]: Active; IC50 [3]: 3460 nM; IC50 [4]: 3700 nM; IC50 [6]: 1250 nM |
| CC1=C(N[C@@H](CC(C)C)C(=O)N[C@@H](CC(C)C)B(O)O)C(=O)c2ccccc2C1=O | 31.4% | > 50% | – |
| CC(C)C[C@H](NC(=O)[C@@H](NC1=CC(=O)c2ccccc2C1=O)C(C)C)B(O)O | 69.2% | > 50% | – |
| CC(C)C[C@H](NC(=O)[C@@H](NC1=C(Cl)C(=O)c2ccccc2C1=O)C(C)C)B(O)O | 47.4% | > 50% | – |
| CC(C)C[C@H](NC(=O)[C@H](C)NC1=C(Cl)C(=O)c2ccccc2C1=O)B(O)O | 64.8% | > 50% | – |
| CC(C)C[C@H](NC(=O)CNC(=O)c1cc(Cl)ccc1Cl)B(O)O [IXAZOMIB] | – | – | metabolised at 0.5 h [12]: 90% |
| CC(C)C[C@H](NC(=O)[C@H](Cc1ccccc1)NC1=C(Cl)C(=O)c2ccccc2C1=O)B(O)O | 86.7% | > 50% | IC50 [9]: 24.6 nM |
| CC1=C(N[C@@H](C)C(=O)N[C@@H](CC(C)C)B(O)O)C(=O)c2ccccc2C1=O | 52.3% | > 50% | – |
| CC(C)C[C@H](NC(=O)[C@H](CC(C)C)NC1=C(Cl)C(=O)c2ccccc2C1=O)B(O)O | 43.5% | > 50% | – |
